Reference: the NIST ThermoML archive (doi:10.1016/j.jct.2016.10.033)

Key:
[1] = 103 kPa, Liquid, Vibrating tube method
[2] = refractive index (Na D-line) (dimensionless); details: 103 kPa, Liquid, Standard Abbe refractometry
[3] = refractive index (Na D-line) (dimensionless); xn = mol fraction of the nth substance listed; details: 103 kPa, Liquid, Standard Abbe refractometry, x1 = 1
[4] = xn = mol fraction of the nth substance listed; details: 103 kPa, Liquid, Vibrating tube method, x1 = 1

CO[Si](C)(C)OC [dimethoxydimethylsilane]
Details | mass density, 298.15 K [kg/m3] | mass density, 303.15 K [kg/m3] | mass density, 308.15 K [kg/m3] | mass density, 313.15 K [kg/m3] | mass density, 318.15 K [kg/m3] | refractive index, 298.15 K | refractive index, 303.15 K | refractive index, 308.15 K | refractive index, 313.15 K | refractive index, 318.15 K
[1] | 857.9 | 852.05 | 846.16 | 840.22 | 834.24 | – | – | – | – | –
[2] | – | – | – | – | – | 1.36816 | 1.36559 | 1.36297 | 1.36035 | 1.35771

CO[Si](C)(OC)c1ccccc1 [dimethoxymethylphenylsilane]
Details | mass density, 298.15 K [kg/m3] | mass density, 303.15 K [kg/m3] | mass density, 308.15 K [kg/m3] | mass density, 313.15 K [kg/m3] | mass density, 318.15 K [kg/m3] | refractive index, 298.15 K | refractive index, 303.15 K | refractive index, 308.15 K | refractive index, 313.15 K | refractive index, 318.15 K
[1] | 1000.78 | 996.13 | 991.48 | 986.81 | 982.15 | – | – | – | – | –
[2] | – | – | – | – | – | 1.47763 | 1.47528 | 1.47293 | 1.47061 | 1.46825

CO[Si](C)(OC)c1ccccc1 [dimethoxymethylphenylsilane] + C=C[Si](C)(OCC)OCC
Details | mass density, 298.15 K [kg/m3] | mass density, 303.15 K [kg/m3] | mass density, 308.15 K [kg/m3] | mass density, 313.15 K [kg/m3] | mass density, 318.15 K [kg/m3] | refractive index, 298.15 K | refractive index, 303.15 K | refractive index, 308.15 K | refractive index, 313.15 K | refractive index, 318.15 K
[3] | – | – | – | – | – | 1.47763 | 1.47528 | 1.47293 | 1.47061 | 1.46825
[4] | 1000.78 | 996.13 | 991.48 | 986.81 | 982.15 | – | – | – | – | –

CO[Si](C)(OC)c1ccccc1 [dimethoxymethylphenylsilane] + C=C[Si](OC)(OC)OC
Details | mass density, 298.15 K [kg/m3] | mass density, 303.15 K [kg/m3] | mass density, 308.15 K [kg/m3] | mass density, 313.15 K [kg/m3] | mass density, 318.15 K [kg/m3] | refractive index, 298.15 K | refractive index, 303.15 K | refractive index, 308.15 K | refractive index, 313.15 K | refractive index, 318.15 K
[3] | – | – | – | – | – | 1.47763 | 1.47528 | 1.47293 | 1.47061 | 1.46825
[4] | 1000.78 | 996.13 | 991.48 | 986.81 | 982.15 | – | – | – | – | –

CO[Si](C)(OC)c1ccccc1 [dimethoxymethylphenylsilane] + CCO[Si](C)(C)OCC
Details | mass density, 298.15 K [kg/m3] | mass density, 303.15 K [kg/m3] | mass density, 308.15 K [kg/m3] | mass density, 313.15 K [kg/m3] | mass density, 318.15 K [kg/m3] | refractive index, 298.15 K | refractive index, 303.15 K | refractive index, 308.15 K | refractive index, 313.15 K | refractive index, 318.15 K
[3] | – | – | – | – | – | 1.47763 | 1.47528 | 1.47293 | 1.47061 | 1.46825
[4] | 1000.78 | 996.13 | 991.48 | 986.81 | 982.15 | – | – | – | – | –

CO[Si](C)(OC)c1ccccc1 [dimethoxymethylphenylsilane] + CO[Si](C)(C)OC
Details | mass density, 298.15 K [kg/m3] | mass density, 303.15 K [kg/m3] | mass density, 308.15 K [kg/m3] | mass density, 313.15 K [kg/m3] | mass density, 318.15 K [kg/m3] | refractive index, 298.15 K | refractive index, 303.15 K | refractive index, 308.15 K | refractive index, 313.15 K | refractive index, 318.15 K
[3] | – | – | – | – | – | 1.47763 | 1.47528 | 1.47293 | 1.47061 | 1.46825
[4] | 1000.78 | 996.13 | 991.48 | 986.81 | 982.15 | – | – | – | – | –

CCO[Si](C)(C)OCC [dimethyldiethoxysilane]
Details | mass density, [1] [kg/m3] | refractive index, [2]
293.15 K | 840.11 | 1.38452
298.15 K | 835.43 | 1.38045
303.15 K | 830.05 | 1.37791
308.15 K | 824.66 | 1.37532
313.15 K | 819.23 | 1.37275
318.15 K | 813.79 | 1.37015

C=C[Si](C)(OCC)OCC [methylvinyldiethoxysilane]
Details | mass density, [1] [kg/m3] | refractive index, [2]
293.15 K | 862.21 | 1.40033
298.15 K | 856.25 | 1.39751
303.15 K | 851.09 | 1.39501
308.15 K | 845.89 | 1.39249
313.15 K | 840.71 | 1.38997
318.15 K | 835.44 | 1.38742

C=C[Si](OC)(OC)OC [trimethoxy(vinyl)silane]
Details | mass density, 298.15 K [kg/m3] | mass density, 303.15 K [kg/m3] | mass density, 308.15 K [kg/m3] | mass density, 313.15 K [kg/m3] | mass density, 318.15 K [kg/m3] | refractive index, 298.15 K | refractive index, 303.15 K | refractive index, 308.15 K | refractive index, 313.15 K | refractive index, 318.15 K
[1] | 965.69 | 960.02 | 954.26 | 948.47 | 942.63 | – | – | – | – | –
[2] | – | – | – | – | – | 1.39022 | 1.38775 | 1.38535 | 1.3829 | 1.38046
